From US8999981B2, “3-amido-pyrrolo[3,4-C]pyrazole-5(1H, 4H,6H) carbaldehyde derivatives” (Pfizer Inc., priority 2007, dated 2015)
pKi: −log10 of the molar value.

Molecular target: Protein Kinase C beta 2 (PKCβII) (Homo sapiens (Human), UniProt P05771)
Assay: PKCβII coupled PK/LDH spectrophotometric kinase assay
Type: biochemical
Details: apparent Ki, ATP-competitive model (Morrison equation); 0.1 mM ATP, 30° C.; read-out: PKCb Ki
Procedure: This transfer is coupled to the oxidation of β-NADH through the activities of Pyruvate Kinase (PK) and Lactate Dehydrogenase (LDH). β-NADH conversion to NAD+ is monitored by the decrease in absorbance at 340 nm (e=6.22 cm^−1 mM^−1) using a Molecular Devices SPECTRA max PLUS spectrophotometer.
A typical assay was carried out on a 96-well, clear microtiter plate in a Molecular Devices spectrophotometer for 20 minutes at 30° C. in 0.1 mL of assay buffer containing 50 mM HEPES, pH 7.4, 5 nM PKC, 23 units of pyruvate kinase, 33 units of lactate dehydrogenase, 0.15 mM peptide, 0.1 mM ATP, 1 mM DTT, 4 mM PEP, 8 mM MgCl2, 0.3 mM NADH, 60 mM CaCl2, 10 mg/mL PS, 50 ng/mL PMA, 7.5% DMSO and from about 10,000 nM to 0.169 nM compound inhibitor. Stock solutions of 3-sn-phosphatidyl-L-serine (PS) and phorbol-12-myristate-13-acetate (PMA) were sonicated for 30 seconds just prior to addition to assay buffer and assays were initiated by the addition of 100 μM ATP.
Enzyme turnover values (kcat) were calculated according to […], where [E] is the total enzyme concentration. Enzyme inhibition constants (apparent K values) were determined by fitting initial velocities at variable inhibitor concentrations to a model for ATP competitive inhibition based on the Morrison equation). Morrison, J. F., Biochim. Biophys Acta 185: 269-286 (1969).

Chain of Protein Kinase C beta 2 (PKCβII) (P05771 other isoform, or with tags, fused parts or gaps): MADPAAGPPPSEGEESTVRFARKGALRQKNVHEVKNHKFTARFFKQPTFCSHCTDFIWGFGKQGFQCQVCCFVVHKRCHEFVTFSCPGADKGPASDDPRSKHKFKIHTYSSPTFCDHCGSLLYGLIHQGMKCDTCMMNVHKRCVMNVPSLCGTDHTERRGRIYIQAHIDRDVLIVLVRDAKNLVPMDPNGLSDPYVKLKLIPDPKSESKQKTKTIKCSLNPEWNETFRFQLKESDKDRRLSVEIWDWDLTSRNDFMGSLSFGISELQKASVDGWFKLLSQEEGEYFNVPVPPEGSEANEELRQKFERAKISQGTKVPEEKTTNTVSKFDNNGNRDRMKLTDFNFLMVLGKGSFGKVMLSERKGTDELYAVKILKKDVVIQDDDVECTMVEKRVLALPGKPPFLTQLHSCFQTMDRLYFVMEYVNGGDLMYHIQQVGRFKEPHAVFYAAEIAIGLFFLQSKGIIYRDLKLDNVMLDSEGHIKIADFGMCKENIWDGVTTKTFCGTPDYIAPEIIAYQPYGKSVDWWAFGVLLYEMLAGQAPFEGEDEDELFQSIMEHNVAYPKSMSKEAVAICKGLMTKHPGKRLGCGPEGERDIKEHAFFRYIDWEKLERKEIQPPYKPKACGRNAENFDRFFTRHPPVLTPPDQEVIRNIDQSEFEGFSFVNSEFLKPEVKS

SMILES | pKi
C[C@H]1CN2CCC[C@H]2CN1C(=O)C1Cc2c(NC(=O)c3cc(Cl)cc(Cl)c3)n[nH]c2C1(C)C (some centres unmarked) [Example A30] | 7.64
C[C@H]1CN2CCC[C@H]2CN1C(=O)N1Cc2c(NC(=O)c3cccc(Cl)c3)n[nH]c2C1(C)C [Example A31] | 7.67
C[C@H]1CN2CCC[C@H]2CN1C(=O)N1Cc2c(NC(=O)c3ccccc3F)n[nH]c2C1(C)C [Example A32] | 7.03
C[C@H]1CN2CCC[C@H]2CN1C(=O)N1Cc2c(NC(=O)c3cc(Cl)ccc3F)n[nH]c2C1(C)C [Example A33] | 7.08
C[C@H]1CN2CCC[C@H]2CN1C(=O)N1Cc2c(NC(=O)c3ccc(F)c(Cl)c3)n[nH]c2C1(C)C [Example A34] | 7.66
C[C@H]1CN2CCC[C@H]2CN1C(=O)N1Cc2c(NC(=O)c3cc(C(F)(F)F)ccc3F)n[nH]c2C1(C)C [Example A35] | 6.75
C[C@H]1CN2CCC[C@H]2CN1C(=O)N1Cc2c(NC(=O)c3ccc(Cl)c(Cl)c3)n[nH]c2C1(C)C [Example A36] | 7.86
C[C@H]1CN2CCC[C@H]2CN1C(=O)N1Cc2c(NC(=O)c3c(F)cccc3C(F)(F)F)n[nH]c2C1(C)C [Example A37] | 6.81
C[C@H]1CN2CCC[C@H]2CN1C(=O)N1Cc2c(NC(=O)c3c(F)cccc3Cl)n[nH]c2C1(C)C [Example A38] | 6.74
COc1cccc(C(=O)Nc2n[nH]c3c2CN(C(=O)N2C[C@@H]4CCCN4C[C@@H]2C)C3(C)C)c1 [Example A39] | 7.32
COc1ccc(C(=O)Nc2n[nH]c3c2CN(C(=O)N2C[C@@H]4CCCN4C[C@@H]2C)C3(C)C)cc1 [Example A40] | 7.49
C[C@H]1CN2CCC[C@H]2CN1C(=O)N1Cc2c(NC(=O)c3ccc(OC(F)(F)F)cc3)n[nH]c2C1(C)C [Example A41] | 7.34
Cc1cc(C(=O)Nc2n[nH]c3c2CN(C(=O)N2C[C@@H]4CCCN4C[C@@H]2C)C3(C)C)n(C)n1 [Example A42] | 7.17
C[C@H]1CN2CCC[C@H]2CN1C(=O)N1Cc2c(NC(=O)c3cncs3)n[nH]c2C1(C)C [Example A43] | 6.87
C[C@H]1CN2CCC[C@H]2CN1C(=O)N1Cc2c(NC(=O)c3cscn3)n[nH]c2C1(C)C [Example A44] | 7.36
C[C@H]1CN2CCC[C@H]2CN1C(=O)N1Cc2c(NC(=O)c3cccc(OC(F)(F)F)c3)n[nH]c2C1(C)C [Example A45] | 6.98
COc1cc(C(=O)Nc2n[nH]c3c2CN(C(=O)N2C[C@@H]4CCCN4C[C@@H]2C)C3(C)C)ccc1Cl [Example A48] | 7.16
C[C@H]1CN2CCC[C@H]2CN1C(=O)N1Cc2c(NC(=O)c3ccc(F)c(Cl)c3)n[nH]c2C1(C)C [Example A49] | 7.27
CCc1ccc(C(=O)Nc2n[nH]c3c2CN(C(=O)N2C[C@@H]4CCCN4C[C@@H]2C)C3(C)C)nc1 [Example A50] | 7.09
CCc1ccnc(C(=O)Nc2n[nH]c3c2CN(C(=O)N2C[C@@H]4CCCN4C[C@@H]2C)C3(C)C)c1 [Example A53] | 7.18
C[C@H]1CN2CCC[C@H]2CN1C(=O)N1Cc2c(NC(=O)c3nc4ccccc4s3)n[nH]c2C1(C)C [Example A54] | 7.30
CCc1ccc(C(=O)Nc2n[nH]c3c2CN(C(=O)N2C[C@@H]4CCCN4C[C@@H]2C)C3(C)C)cc1 [Example A61] | 7.62
C[C@H]1CN2CCC[C@H]2CN1C(=O)N1Cc2c(NC(=O)c3cccc(F)c3F)n[nH]c2C1(C)C [Example A63] | 7.18
Cc1cccc(C(=O)Nc2n[nH]c3c2CN(C(=O)N2C[C@@H]4CCCN4C[C@@H]2C)C3(C)C)c1 [Example A65] | 7.26
C[C@H]1CN2CCC[C@H]2CN1C(=O)N1Cc2c(NC(=O)c3ccc(C#N)cc3F)n[nH]c2C1(C)C [Example A66] | 6.91
C[C@H]1CN2CCC[C@H]2CN1C(=O)N1Cc2c(NC(=O)c3ccc(Cl)cn3)n[nH]c2C1(C)C [Example A67] | 7.61

Now from value to compound:

pKi | SMILES
7.44 | CC1CN(C(=O)N2Cc3c(NC(=O)c4ccccn4)n[nH]c3C2(C)C)C(C)CN1 (centres unmarked) [Example A46]
7.18 | COc1ccc(C(=O)Nc2n[nH]c3c2CN(C(=O)N2C[C@@H]4CCCN4C[C@@H]2C)C3(C)C)nc1 [Example A47]
7.68 | Cc1cc(C)nc(C(=O)Nc2n[nH]c3c2CN(C(=O)N2C[C@@H]4CCCN4C[C@@H]2C)C3(C)C)c1 [Example A51]
6.83 | Cc1cc(C(=O)Nc2n[nH]c3c2CN(C(=O)N2C[C@@H]4CCCN4C[C@@H]2C)C3(C)C)nn1C [Example A52]
6.75 | CC(C)c1csc(C(=O)Nc2n[nH]c3c2CN(C(=O)N2C[C@@H]4CCCN4C[C@@H]2C)C3(C)C)n1 [Example A55]
7.74 | CC1(C)c2[nH]nc(NC(=O)c3ccccn3)c2CN1C(=O)N1C[C@@H]2CCCN2C[C@@H]1CC1CCCCC1 [Example A56]
7.06 | CC1(C)CN2CCC[C@H]2CN1C(=O)N1Cc2c(NC(=O)c3cccc(Cl)c3)n[nH]c2C1(C)C [Example A57]
7.45 | Cc1cc(C(=O)Nc2n[nH]c3c2CN(C(=O)N2C[C@@H]4CCCN4C[C@@H]2C)C3(C)C)nc(Cl)n1 [Example A58]
7.02 | COc1cc(C(=O)Nc2n[nH]c3c2CN(C(=O)N2C[C@@H]4CCCN4C[C@@H]2C)C3(C)C)nc(OC)n1 [Example A59]
7.77 | C[C@H]1CN2CCC[C@H]2CN1C(=O)N1Cc2c(NC(=O)c3cccc(C#N)c3)n[nH]c2C1(C)C [Example A60]
7.29 | Cc1cc(C(=O)Nc2n[nH]c3c2CN(C(=O)N2C[C@@H]4CCCN4C[C@@H]2C)C3(C)C)ccc1F [Example A62]
7.80 | C[C@H]1CN2CCC[C@H]2CN1C(=O)N1Cc2c(NC(=O)c3ccc4c(c3)CCO4)n[nH]c2C1(C)C [Example A64]
7.67 | C[C@H]1CN2CCC[C@H]2CN1C(=O)N1Cc2c(NC(=O)c3cc(Cl)ccn3)n[nH]c2C1(C)C [Example A68]
7.17 | CC[C@H]1CN2CCC[C@H]2CN1C(=O)N1Cc2c(NC(=O)c3ccccc3)n[nH]c2C1(C)C [Example A69]
7.34 | CC[C@H]1CN2CCC[C@H]2CN1C(=O)N1Cc2c(NC(=O)c3ccccn3)n[nH]c2C1(C)C [Example A70]
7.30 | CC[C@H]1CN2CCC[C@H]2CN1C(=O)N1Cc2c(NC(=O)c3cccc(Cl)c3)n[nH]c2C1(C)C [Example A71]
6.98 | CC[C@H]1CN2CCC[C@H]2CN1C(=O)N1Cc2c(NC(=O)c3ccccc3F)n[nH]c2C1(C)C [Example A72]
6.94 | CC[C@H]1CN2CCC[C@H]2CN1C(=O)N1Cc2c(NC(=O)c3ccc(F)cc3)n[nH]c2C1(C)C [Example A73]
7.98 | C[C@H]1CN2CCC[C@H]2CN1C(=O)N1Cc2c(NC(=O)c3nc(Cl)c(Cl)s3)n[nH]c2C1(C)C [Example A74]
7.24 | Cc1cc(C(=O)Nc2n[nH]c3c2CN(C(=O)N2C[C@@H]4CCCN4C[C@@H]2C)C3(C)C)nc(C)n1 [Example A75]
7.86 | C[C@H]1CN2CCC[C@H]2CN1C(=O)N1Cc2c(NC(=O)c3cc4cccn4cn3)n[nH]c2C1(C)C [Example A76]
7.11 | C[C@H]1CN2CCC[C@@H]2CN1C(=O)N1Cc2c(NC(=O)c3ccccn3)n[nH]c2C1(C)C [Example A77]
6.78 | CC1(C)c2[nH]nc(NC(=O)c3ccccn3)c2CN1C(=O)N1C[C@@H]2CCCN2C[C@@H]1CO [Example A78]
7.10 | CCC1CN(C(=O)N2Cc3c(NC(=O)c4ccccn4)n[nH]c3C2(C)C)CCN1C (centres unmarked) [Example A79]
